Article PMC2667896 (Archives of Drug Information, 2009)
Like-named read-outs stand apart in the source and are kept apart here.

Experiments:
CYP3A4 = conditions: cited from earlier work
[1] = Steady-state plasma pharmacokinetics in healthy volunteers; assay type: in vivo, human
[2] = cited from earlier work
[3] = Day 11, Arm 1, participant 2, saquinavir/ritonavir 1,000/100 mg orally twice daily
[4] = Day 11, Arm 1, participant 4, saquinavir/ritonavir 1,000/100 mg orally twice daily
[5] = Day 12, Arm 1, participant 2, saquinavir/ritonavir 1,000/100 mg orally twice daily
[6] = Day 12, Arm 1, participant 4, saquinavir/ritonavir 1,000/100 mg orally twice daily
[7] = Day 13, Arm 1, participant 2, saquinavir/ritonavir 1,000/100 mg orally twice daily
[8] = Day 13, Arm 1, participant 4, saquinavir/ritonavir 1,000/100 mg orally twice daily

Individual trough plasma concentration ([1]; Day 11, Arm 2, participant 1, efavirenz 600 mg orally once daily)	Individual trough plasma concentration ([1]; Day 12, Arm 2, participant 1, efavirenz 600 mg orally once daily)	Individual trough plasma concentration ([1]; Day 13, Arm 2, participant 1, efavirenz 600 mg orally once daily)	AUC ([1]; human, plasma, po, 600 mg) [ng·h/mL]	Cmax ([1]; human, plasma, po, 600 mg) [ng/mL]	Tmax ([1]; human, plasma, po, 600 mg) [h]	half-life ([1]; human, plasma, po, 600 mg) [h]	Individual trough plasma concentration [1, 3] [ng/mL]	Individual trough plasma concentration [1, 4] [ng/mL]	Individual trough plasma concentration [1, 5] [ng/mL]	Individual trough plasma concentration [1, 6] [ng/mL]	Individual trough plasma concentration [1, 7] [ng/mL]	Individual trough plasma concentration [1, 8]	half-life ([1]; human, plasma, po) [h]	Tmax ([1]; steady state (day 14), Arm 1, participant 2, saquinavir/ritonavir 1,000/100 mg orally twice daily) [h]	Tmax ([1]; human, plasma, po) [h]	Structure (SMILES)	Effect on CYP3A4 (CYP3A4; efavirenz)	half-life [2] [h]	Effect on CYP3A4 (CYP3A4; saquinavir)
1,080 ng/mL	1,050 ng/mL	1,060 ng/mL	42500	4780	2	26.5										O=C1Nc2ccc(Cl)cc2[C@@](C#CC2CC2)(C(F)(F)F)O1 [Efavirenz]	potent inducer	40 to 55	
							57.8	137	83.8	163	86.2	251 ng/mL	3.53	1.00		CC(C)c1nc(CN(C)C(=O)N[C@H](C(=O)N[C@@H](Cc2ccccc2)C[C@H](O)[C@H](Cc2ccccc2)NC(=O)OCc2cncs2)C(C)C)cs1 [Ritonavir]			
							337	602	640	700	867	1,220 ng/mL	5.98		2	CC(C)(C)NC(=O)[C@@H]1C[C@@H]2CCCC[C@@H]2CN1C[C@@H](O)[C@H](Cc1ccccc1)NC(=O)[C@H](CC(N)=O)NC(=O)c1ccc2ccccc2n1 [Saquinavir]			weak CYP3A4 inhibitor
